Measured values from US20240238290A1, “USE OF COMPLEMENT FACTOR D INHIBITOR FOR TREATMENT OF GENERALIZED MYASTHENIA GRAVIS” (Alexion Pharmaceuticals, Inc., priority 2021, published 2024).

Experiments:
[1] = system: complement alternative pathway (AP) activity; assay: AP inhibition in the AP Wieslab assay (PD), Phase 1 healthy volunteer studies; type: in vivo, human
Experimental: (§1) In addition, both dosage regimens provided complete (>90%) and sustained inhibition of AP activity throughout the 12-hour dosing interval. Therefore, 120 mg BID is selected as the minimum therapeutic dosage.

[2] = biological target: FD (complement factor D) (Homo sapiens, UniProt P00746); assay: Inhibition of factor D
Sequence of FD (complement factor D) (P00746 26-253): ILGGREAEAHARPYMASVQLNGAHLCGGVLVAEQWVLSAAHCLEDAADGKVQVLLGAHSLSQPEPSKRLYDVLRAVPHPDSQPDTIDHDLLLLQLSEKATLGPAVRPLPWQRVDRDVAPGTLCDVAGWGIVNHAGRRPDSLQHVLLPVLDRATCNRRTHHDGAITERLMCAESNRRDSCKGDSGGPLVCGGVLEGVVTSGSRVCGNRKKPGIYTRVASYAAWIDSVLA

[3] = Phase 1 single ascending and multiple ascending dose studies, PK; type: in vivo, human; settings: for PK exposures versus dose: healthy volunteers
[4] = system: plasma Bb; assay: Biomarkers of AP activity in vivo (plasma Bb levels)
[5] = Safety and safety margin of multiple dose regimens versus NOAEL exposures from nonclinical chronic toxicology studies; type: in vivo, human; settings: multiple dose study
Experimental: as §1

SMILES: CC(=O)c1nn(CC(=O)N2[C@H](C(=O)Nc3nc(Br)ccc3C)C[C@@]3(C)C[C@@H]23)c2ccc(-c3cnc(C)nc3)cc12 [Compound 1, vemircopan]
- inhibition at 120 mg ([1]; Homo sapiens, 120 mg BID, sustained throughout the 12-hour dosing interval): > 90%
- inhibition at 200 mg ([1]; Homo sapiens, 200 mg BID, sustained throughout the 12-hour dosing interval): > 90%
- PD activity as determined by AP inhibition in the AP Wieslab assay ([1]; healthy volunteers, Phase 1): increased with increasing exposure
- inhibition of complement AP activity in vivo ([1]; in vivo): dose dependent inhibition
- inhibition of FD [2]: potent inhibitor
- variability in the PK and PD data and PK/PD relationship ([3]; Phase 1 healthy volunteers): large variabilities
- PK exposures versus dose ([3]; following single doses): increased dose proportionally
- PK exposures versus dose ([3]; multiple doses at steady state, 40 mg BID to 200 mg BID): greater than dose proportional manner
- plasma Bb levels following administration [4]: significant dose-dependent reductions
- safety and effectiveness of dosage regimen ([5]; 120 mg BID): safe and effective
- safety margin in AUC0-24 over exposures at NOAEL ([5]; 120 mg BID): ≥ 10 fold
- safety margin in Cmax over exposures at NOAEL ([5]; 120 mg BID): ≥ 10 fold
- safety and effectiveness of dosage regimen ([5]; 200 mg BID): safe and effective
- safety margin in AUC0-24 over exposures at NOAEL ([5]; 200 mg BID): ≥ 10 fold
- safety margin in Cmax over exposures at NOAEL ([5]; 200 mg BID): ≥ 10 fold
